One assay deals with Tyrosine-protein kinase BTK (Homo sapiens, UniProt Q06187). Nature of the assay: Inhibition of BTK (unknown origin).
For `Nc1ncnc2c1c(-c1ccc(Oc3ccccc3)cc1)nn2C1CCCN(C(=O)/C=C/Cl)C1` (configuration not stated), inhibition was half-maximal at 0.52 nM (IC50).

For a further assay, the system named is GTPase KRas (Homo sapiens), P01116 [G12C]. Description: Binding affinity to hexa-histidine-tagged recombinant human K-Ras isoform 2 G12C mutant (1 to 169 residues) expressed in Escherichia coli BL21 (DE3) at 10 uM after 24 hrs.
With `C=CS(=O)(=O)NC1CCN(C(=O)CNc2cc(I)c(Cl)cc2OC)CC1`, the Activity turned out to be 100%.
Regarding `C=CS(=O)(=O)NC1CCN(C(=O)CNc2c(Cl)cc(Cl)c3c2OC(C)(C)O3)CC1`, the Activity was 50%.
As for `C=CS(=O)(=O)NC1CCN(C(=O)CNc2cc(Cl)c(Cl)cc2O)CC1`, the Activity is 87%.
For `C=CC(=O)N1CCN(C(=O)CNc2cc(C(F)(F)F)c(Cl)cc2OC)CC1`, the Activity is 14%.
As to `C=CC(=O)N1CCN(C(=O)CNc2cc(Cl)c(Cl)cc2OC)CC1`, the Activity is 28%.
Turning to `C=CC(=O)N1CCN(C(=O)CNc2cc(I)c(Cl)cc2O)CC1`, the Activity was 100%.
